Measurements published in patent publication US6881732B2, “Neuroprotection and cardioprotection afforded by chelators with high affinity and specificity for cations of first transition series elements” (Chelator LLC, priority 2002, dated 2005).

Assays:
[1] = tested on: Fenton Reactions (iron catalyzed Haber-Weiss pathways); experiment: iron-catalyzed free radical generation, superoxide-driven Fenton reaction; format: biochemical; settings: chelator as Fe(III) complex
Method: Employing published methods, as described in “Quantitative Effects of Iron Chelators on Hydroxyl Radical Production by the Superoxide-Driven Fenton Reaction,” J. B. Smith, J. C. Cusumano, C. F. Babbs, Free Rad. Res. Comms. 1990, Vol. 8, No. 2, 101-106, the ability of Fe(III) complexed to N,N′,N″-tri(dihydroxy-phosphoryl methyl)-1,4,7-triazacyclononane to support Fenton reactions was evaluated.

[2] = tested on: ex vivo working rat heart; experiment: ex vivo working rat heart model of global ischemia
Sprague Dawley rats = experiment: subacute toxicity, repeated intravenous doses in rats; format: in vivo, rat
From the text: Ten male Sprague Dawley rats 29 days old and weighing between 73.4 and 87.8 grams at the beginning of the experiment were randomized, employing the block stratificaton method, into two groups consisting of five rats each. On each of days 1, 2, 3, 6, 7, 8, 9, 10, 13 and 14 of the experiment one set of rats received an intravenous dose of N,N′,N″-tri(dihydroxyphosphoryl methyl)-1,4,7-triazacyclononane (Example 1C in U.S. Pat. No. 5,236,695) equal to 0.05 millimoles per kg of initial body weight (experimental group) while the other group received an equivalent volume of normal saline solution. The weights of the animals were recorded three times per week and the animals were sacrificed on the 28th day, major organs removed and weighed and tissues removed for microscopic examination.

[3] = acute in vivo toxicity, single intravenous dose in mice; settings: mouse, in vivo, iv
Method: (§1) This example illustrates the low in vivo toxicity of a representative example of the chelators of this invention upon administration to mice.
(§2) This in vivo LD50 toxicity dose results in an instantaneous in vivo concentration which is orders of magnitude greater than the dose of this agent which inhibits mammalian cell replication in vitro (0.009 mM/L).

mice = experiment: as above; settings: 3.0 mM/kg single intravenous dose; sodium salt
Method: as §1, §2

[4] = tested on: HFF (human foreskin fibroblasts); experiment: toxicity toward nonproliferating mammalian cells in vitro; format: cell-based; settings: 0.3 mM; mature, nonreplicating HFF cultures in maintenance media; five-day period of observation
From the text: This example illustrates the relatively low toxicity of a representative example of the chelators of this invention toward nonproliferating mammalian cells in vitro.

unanesthetized rabbit = experiment: ventricular overdrive pacing (VOP) induced ischemia in unanesthetized rabbit; format: in vivo; settings: for cardioprotection with regard to cardiac performance parameters: 10 min prior to VOP
Method: In the in vivo unanesthetized rabbit VOP-induced myocardial ischemia model, intravenous doses of 0.032 mmole/kg and 0.096 mmole/kg of the test compound were cardioprotective with regard to cardiac performance parameters when administered 10 min prior to VOP. […] The test compound had no affect on any cardiac performance parameters in these experiments prior to VOP-induced ischemia.

rats = experiment: rat stroke model, transient occlusion of the middle cerebral artery (TMCAO); format: in vivo; settings: for Infarct Volumes: 48 hours after surgery; for Infarct Volumes / Motor Score: 1 Hour / Motor Score: 24 Hours / Motor Score: 48 Hours: mean ± SD
[5] = tested on: mammalian cell replication; experiment: inhibition of mammalian cell replication in vitro; format: cell-based
Method: as §2

anesthetized rabbit = experiment: rabbit myocardial infarction model (30 min LCAO, reperfusion ~24 hours); format: in vivo; settings: for cardioprotection (volume of infarcted myocardium vs. controls): administered beginning after 15 minutes of LCAO
Method: Cardioprotection by the test compound in ischemia-reperfusion injury was evaluated in a rabbit myocardial infarction model employing 30 minutes of reversible ligature occlusion of the left anterior descending coronary artery (LCAO) followed by reperfusion for ˜24 hours prior to sacrifice.

[6] = Set I: three IV doses of 0.032 mmoles/kg at 10 min prior to, 60 min after MCA occlusion and at reperfusion
[7] = Set II: three IV doses of 0.032 mmoles/kg at 60, 120 (reperfusion) and 180 min after MCA occlusion
[8] = Set III: single 0.032 mmoles/kg IV dose after 60 minutes of MCA occlusion
[9] = Set IV: single 0.032 mmoles/kg IV dose after 90 minutes of MCA occlusion

## O=C(O)CN(CCN(CC(=O)O)CC(=O)O)CC(=O)O [EDTA, ethylene diamine tetra acetic acid, reference compound]
[1]
  ability of Fe(III) complexed to the chelator to support Fenton reactions (hydroxyl radical formation): supported the Fenton reaction yielding hydroxyl radicals

## O=P(O)(O)CN1CCN(CP(=O)(O)O)CCN(CP(=O)(O)O)CC1 [N,N′,N″-tris(dihydroxyphosphorylmethyl)-1,4,7-triazacyclononane]
[2]; 2.7 mM in the perfusing medium
  effects on cardiac parameters following ischemia: no adverse effects
  effects on cardiac performance parameters prior to ischemia: no effects
[2]; added to the perfusing medium, broad concentration range
  cardioprotection with regard to cardiac performance parameters following global ischemia: significantly cardioprotective
[2]; in the perfusing medium
  concentration of peak efficacy (cardioprotection): 0.01 mM
Sprague Dawley rats; 0.05 millimoles per kg IV on 10 days within 14 days, injection period and two-week post-injection period
  difference in weight or rate of weight gain vs control group: no statistically significant difference
Sprague Dawley rats; 0.05 millimoles per kg IV on 10 days, necropsy on 28th day
  differences in tissues upon microscopic examination vs control group: no differences
Sprague Dawley rats; 0.05 millimoles per kg IV on 10 days, sacrifice on 28th day
  differences in weights of major organs vs control group: no differences observed
[3]
  LD50 at 14 days: > 3000 µmol/kg
mice
  mice surviving for over 14 days: Over 50%
[1]
  ability of Fe(III) complexed to the chelator to support Fenton reactions (hydroxyl radical formation): failed to show evidence of hydroxyl ion formation above background
[4]
  effect on the resting cells: no effect on the resting cells was observed
Unanesthetized rabbit; 0.032 mmole/kg intravenous
  cardioprotection with regard to cardiac performance parameters: cardioprotective
Unanesthetized rabbit; 0.096 mmole/kg intravenous
  cardioprotection with regard to cardiac performance parameters: cardioprotective
Unanesthetized rabbit; single IV dose of 0.032 mmole/kg administered up to 60-120 min prior to VOP-induced ischemia
  cardioprotection: significant cardioprotection
Unanesthetized rabbit; unanesthetized rabbit
  effect on cardiac performance parameters prior to VOP-induced ischemia: no affect
rats; [6]
  Infarct Volumes: 3.5 ± 3.7 percentage of whole hemispheric tissue
  Motor Score: 1 Hour: 7.3 ± 1.3 points
  Motor Score: 24 Hours: 5.9 ± 1.1 points
  Motor Score: 48 Hours: 5.4 ± 1.9 points
rats; [7]
  Infarct Volumes: 6.2 ± 7.5 percentage of whole hemispheric tissue
  Motor Score: 1 Hour: 6.9 ± 1.1 points
  Motor Score: 24 Hours: 3.6 ± 2.9 points
  Motor Score: 48 Hours: 3.0 ± 3.0 points
rats; [8]
  Infarct Volumes: 2.6 ± 2.1 percentage of whole hemispheric tissue
  Motor Score: 1 Hour: 6.8 ± 1.0 points
  Motor Score: 24 Hours: 4.3 ± 1.0 points
  Motor Score: 48 Hours: 2.8 ± 2.1 points
rats; [9]
  Infarct Volumes: 4.63 ± 9.08 percentage of whole hemispheric tissue
  Motor Score: 24 Hours: 4.9 ± 2.04 points
  Motor Score: 48 Hours: 3.7 ± 1.98 points
rats; Set IV: single 0.032 mmoles/kg IV dose after 90 minutes of MCA occlusion, cell marked '2 hours:'
  Motor Score: 1 Hour: 7.43 ± 1.27 points
rats; all treated groups
  blood pressure, heart rate and temperature values compared with vehicle-treated animals: similar
rats; all treated rats
  reduction in infarct volumes compared to the corresponding control group: robust
[5]
  dose which inhibits mammalian cell replication in vitro: 0.009 mM/L
Anesthetized rabbit
  cardioprotection (volume of infarcted myocardium vs. controls): significant reduction
Anesthetized rabbit; administration beginning after 15 minutes of LCAO
  volume of infarcted myocardium expressed as % of myocardial volume at risk: 30.6%
Anesthetized rabbit; administration initiated 10 minutes prior to the onset of ischemia
  infarcted myocardium as a % of volume at risk: 28.1%
Anesthetized rabbit; rabbit
  effect on pre-ischemia cardiac performance parameters: without affecting

## O=C(NCCO[N+](=O)[O-])c1cccnc1 [nicorandil, reference compound]
Anesthetized rabbit
  cardioprotection (volume of infarcted myocardium vs. controls): failed to provide cardioprotection
